{
  "source": "paper PMC9518264",
  "about": "“Design and synthesis of novel quinazolinone-based derivatives as EGFR inhibitors with antitumor activity” (Journal of Enzyme Inhibition and Medicinal Chemistry, 2022)",
  "key": {"[1]": {"test_system": "HL-60(TB)", "assay": "cells", "type": "cell-based", "details": "Homo sapiens, HL-60, read-out: growth inhibition % (GI%)"}, "[2]": {"test_system": "MOLT-4", "assay": "cells", "type": "cell-based", "details": "Homo sapiens, MOLT-4, read-out: growth inhibition % (GI%)"}, "[3]": {"test_system": "RPMI-8226", "assay": "cells", "type": "cell-based", "details": "Homo sapiens, RPMI-8226, read-out: growth inhibition % (GI%)"}, "[4]": {"test_system": "SR", "assay": "cells", "type": "cell-based", "details": "Homo sapiens, read-out: growth inhibition % (GI%)"}, "[5]": {"test_system": "A549/ATCC", "assay": "cells", "type": "cell-based", "details": "Homo sapiens, A549, read-out: growth inhibition % (GI%)"}, "[6]": {"test_system": "EKVX", "assay": "cells", "type": "cell-based", "details": "Homo sapiens, read-out: growth inhibition % (GI%)"}, "[7]": {"test_system": "HOP-62", "assay": "cells", "type": "cell-based", "details": "Homo sapiens, HOP-62, read-out: growth inhibition % (GI%)"}, "[8]": {"test_system": "HOP-92", "assay": "cells", "type": "cell-based", "details": "Homo sapiens, HOP-92, read-out: growth inhibition % (GI%)"}, "[9]": {"test_system": "NCI-H226", "assay": "cells", "type": "cell-based", "details": "Homo sapiens, NCI-H226, read-out: growth inhibition % (GI%)"}, "[10]": {"test_system": "NCI-H322M", "assay": "cells", "type": "cell-based", "details": "Homo sapiens, read-out: growth inhibition % (GI%)"}, "[11]": {"test_system": "NCI-H460", "assay": "cells", "type": "cell-based", "details": "Homo sapiens, NCI-H460, read-out: growth inhibition % (GI%)"}, "[12]": {"test_system": "NCI-H522", "assay": "cells", "type": "cell-based", "details": "Homo sapiens, NCI-H522, read-out: growth inhibition % (GI%)"}, "[13]": {"test_system": "COLO-205", "assay": "cells", "type": "cell-based", "details": "Homo sapiens, COLO 205, read-out: growth inhibition % (GI%)"}, "[14]": {"test_system": "HCC-2998", "assay": "cells", "type": "cell-based", "details": "Homo sapiens, HCC 2998, read-out: growth inhibition % (GI%)"}, "[15]": {"test_system": "HCT-116", "assay": "cells", "type": "cell-based", "details": "Homo sapiens, HCT-116, read-out: growth inhibition % (GI%)"}, "[16]": {"test_system": "HCT-15", "assay": "cells", "type": "cell-based", "details": "Homo sapiens, HCT-15, read-out: growth inhibition % (GI%)"}, "[17]": {"test_system": "HT29", "assay": "cells", "type": "cell-based", "details": "Homo sapiens, HT-29, read-out: growth inhibition % (GI%)"}, "[18]": {"test_system": "KM12", "assay": "cells", "type": "cell-based", "details": "Homo sapiens, KM12, read-out: growth inhibition % (GI%)"}, "[19]": {"test_system": "SF-539", "assay": "cells", "type": "cell-based", "details": "Homo sapiens, SF-539, read-out: growth inhibition % (GI%)"}, "[20]": {"test_system": "SNB-19", "assay": "cells", "type": "cell-based", "details": "Homo sapiens, SNB-19, read-out: growth inhibition % (GI%)"}, "[21]": {"test_system": "SNB-75", "assay": "cells", "type": "cell-based", "details": "Homo sapiens, SNB-75, read-out: growth inhibition % (GI%)"}, "[22]": {"test_system": "U251", "assay": "cells", "type": "cell-based", "details": "Homo sapiens, U-251, read-out: growth inhibition % (GI%)"}, "[23]": {"test_system": "LOX IMIV", "assay": "cells", "type": "cell-based", "details": "Homo sapiens, 60 cell, read-out: growth inhibition % (GI%)"}, "[24]": {"test_system": "MDA-MB-435", "assay": "cells", "type": "cell-based", "details": "Homo sapiens, MDA-MB-435, read-out: growth inhibition % (GI%)"}, "[25]": {"test_system": "SK-MEL-2", "assay": "cells", "type": "cell-based", "details": "Homo sapiens, SK-MEL-2, read-out: growth inhibition % (GI%)"}, "[26]": {"test_system": "SK-MEL-28", "assay": "cells", "type": "cell-based", "details": "Homo sapiens, SK-MEL-28, read-out: growth inhibition % (GI%)"}, "[27]": {"test_system": "UACC-257", "assay": "cells", "type": "cell-based", "details": "Homo sapiens, UACC-257, read-out: growth inhibition % (GI%)"}, "[28]": {"test_system": "UACC-62", "assay": "cells", "type": "cell-based", "details": "Homo sapiens, UACC-62, read-out: growth inhibition % (GI%)"}, "[29]": {"test_system": "IGROV1", "assay": "cells", "type": "cell-based", "details": "Homo sapiens, IGROV-1, read-out: growth inhibition % (GI%)"}, "[30]": {"test_system": "OVCAR-4", "assay": "cells", "type": "cell-based", "details": "Homo sapiens, OVCAR-4, read-out: growth inhibition % (GI%)"}, "[31]": {"test_system": "OVCAR-5", "assay": "cells", "type": "cell-based", "details": "Homo sapiens, OVCAR-5, read-out: growth inhibition % (GI%)"}, "[32]": {"test_system": "NCI/ADR-RES", "assay": "cells", "type": "cell-based", "details": "Homo sapiens, read-out: growth inhibition % (GI%)"}, "[33]": {"test_system": "SK-OV-3", "assay": "cells", "type": "cell-based", "details": "Homo sapiens, SK-OV-3, read-out: growth inhibition % (GI%)"}, "[34]": {"test_system": "786-0", "assay": "cells", "type": "cell-based", "details": "Homo sapiens, 786-0, read-out: growth inhibition % (GI%)"}, "[35]": {"test_system": "A498", "assay": "cells", "type": "cell-based", "details": "Homo sapiens, A498, read-out: growth inhibition % (GI%)"}, "[36]": {"test_system": "TK-10", "assay": "cells", "type": "cell-based", "details": "Homo sapiens, TK-10, read-out: growth inhibition % (GI%)"}, "[37]": {"test_system": "PC-3", "assay": "cells", "type": "cell-based", "details": "Homo sapiens, PC-3, read-out: growth inhibition % (GI%)"}, "[38]": {"test_system": "DU-145", "assay": "cells", "type": "cell-based", "details": "Homo sapiens, DU-145, read-out: growth inhibition % (GI%)"}, "[39]": {"test_system": "MCF7", "assay": "cells", "type": "cell-based", "details": "Homo sapiens, MCF7, read-out: growth inhibition % (GI%)"}, "[40]": {"test_system": "MDA-MB-231/ATCC", "assay": "NCI 60 cell line antiproliferative screening (SRB), Breast cancer", "type": "cell-based", "details": "Homo sapiens, MDA-MB-231, read-out: growth inhibition % (GI%)"}, "[41]": {"test_system": "HS 578T", "assay": "cells", "type": "cell-based", "details": "Homo sapiens, Hs-578T, read-out: growth inhibition % (GI%)"}, "[42]": {"test_system": "BT-549", "assay": "cells", "type": "cell-based", "details": "Homo sapiens, BT-549, read-out: growth inhibition % (GI%)"}, "[43]": {"test_system": "T-47D", "assay": "cells", "type": "cell-based", "details": "Homo sapiens, T47D, read-out: growth inhibition % (GI%)"}, "[44]": {"test_system": "panel of 60 tumour cell lines", "assay": "NCI 60 cell line antiproliferative screening (SRB), whole panel or subpanels (means, ranges, words)", "type": "cell-based, human", "details": "10 μM"}, "[45]": {"test_system": "MDA-MB-468", "assay": "NCI 60 cell line antiproliferative screening (SRB), Breast cancer", "details": "Homo sapiens, MDA-MB-468, read-out: growth inhibition % (GI%)"}, "[46]": {"test_system": "OVCAR-3", "assay": "NCI 60 cell line antiproliferative screening (SRB), Ovarian cancer", "details": "Homo sapiens, OVCAR-3, read-out: growth inhibition % (GI%)"}},
  "data": [
    {"smiles": "COc1ccc(Oc2ccc(C=NNC(=O)CSc3nc4ccccc4c(=O)n3-c3ccc(Cl)cc3)cc2)cc1", "note": "[6f, 2-((3–(4-chlorophenyl)-4-oxo-3,4-dihydroquinazolin-2-yl)thio)-N'-(4–(4-methoxyphenoxy)benzylidene)acetohydrazide]", "values": [
      {"measurement": "inhibition at 10 µM", "setting": "[1]", "result": "< 15", "unit": "%"},
      {"measurement": "inhibition at 10 µM", "setting": "[2]", "result": 38.3, "unit": "%"},
      {"measurement": "inhibition at 10 µM", "setting": "[3]", "result": 14.9, "unit": "%"},
      {"measurement": "inhibition at 10 µM", "setting": "[4]", "result": 27.2, "unit": "%"},
      {"measurement": "inhibition at 10 µM", "setting": "[5]", "result": 53, "unit": "%"},
      {"measurement": "inhibition at 10 µM", "setting": "[6]", "result": 30.6, "unit": "%"},
      {"measurement": "inhibition at 10 µM", "setting": "[7]", "result": 26.7, "unit": "%"},
      {"measurement": "inhibition at 10 µM", "setting": "[8]", "result": 22.7, "unit": "%"},
      {"measurement": "inhibition at 10 µM", "setting": "[9]", "result": 20.3, "unit": "%"},
      {"measurement": "inhibition at 10 µM", "setting": "[10]", "result": 15.3, "unit": "%"},
      {"measurement": "inhibition at 10 µM", "setting": "[11]", "result": 88.8, "unit": "%"},
      {"measurement": "inhibition at 10 µM", "setting": "[12]", "result": 48.7, "unit": "%"},
      {"measurement": "inhibition at 10 µM", "setting": "[13]", "result": 27.2, "unit": "%"},
      {"measurement": "inhibition at 10 µM", "setting": "[14]", "result": 16.6, "unit": "%"},
      {"measurement": "inhibition at 10 µM", "setting": "[15]", "result": 86.7, "unit": "%"},
      {"measurement": "inhibition at 10 µM", "setting": "[16]", "result": 44, "unit": "%"},
      {"measurement": "inhibition at 10 µM", "setting": "[17]", "result": 83.9, "unit": "%"},
      {"measurement": "inhibition at 10 µM", "setting": "[18]", "result": 22.8, "unit": "%"},
      {"measurement": "inhibition at 10 µM", "setting": "[19]", "result": 67.8, "unit": "%"},
      {"measurement": "inhibition at 10 µM", "setting": "[20]", "result": 38.5, "unit": "%"},
      {"measurement": "inhibition at 10 µM", "setting": "[21]", "result": 58.4, "unit": "%"},
      {"measurement": "inhibition at 10 µM", "setting": "[22]", "result": 63.5, "unit": "%"},
      {"measurement": "inhibition at 10 µM", "setting": "[23]", "result": 85.3, "unit": "%"},
      {"measurement": "inhibition at 10 µM", "setting": "[24]", "result": "< 15", "unit": "%"},
      {"measurement": "inhibition at 10 µM", "setting": "[25]", "result": "< 15", "unit": "%"},
      {"measurement": "inhibition at 10 µM", "setting": "[26]", "result": "< 15", "unit": "%"},
      {"measurement": "inhibition at 10 µM", "setting": "[27]", "result": "< 15", "unit": "%"},
      {"measurement": "inhibition at 10 µM", "setting": "[28]", "result": 38.1, "unit": "%"},
      {"measurement": "inhibition at 10 µM", "setting": "[29]", "result": 51.4, "unit": "%"},
      {"measurement": "inhibition at 10 µM", "setting": "[30]", "result": 27.4, "unit": "%"},
      {"measurement": "inhibition at 10 µM", "setting": "[31]", "result": 18.8, "unit": "%"},
      {"measurement": "inhibition at 10 µM", "setting": "[32]", "result": 48.9, "unit": "%"},
      {"measurement": "inhibition at 10 µM", "setting": "[33]", "result": 33.7, "unit": "%"},
      {"measurement": "inhibition at 10 µM", "setting": "[34]", "result": 74.8, "unit": "%"},
      {"measurement": "inhibition at 10 µM", "setting": "[35]", "result": 27.1, "unit": "%"},
      {"measurement": "inhibition at 10 µM", "setting": "[36]", "result": "< 15", "unit": "%"},
      {"measurement": "inhibition at 10 µM", "setting": "[37]", "result": 36.3, "unit": "%"},
      {"measurement": "inhibition at 10 µM", "setting": "[38]", "result": 50.8, "unit": "%"},
      {"measurement": "inhibition at 10 µM", "setting": "[39]", "result": 50.7, "unit": "%"},
      {"measurement": "inhibition at 10 µM", "setting": "[40]", "result": 53.3, "unit": "%"},
      {"measurement": "inhibition at 10 µM", "setting": "[41]", "result": "> 100", "unit": "%"},
      {"measurement": "inhibition at 10 µM", "setting": "[42]", "result": "< 15", "unit": "%"},
      {"measurement": "inhibition at 10 µM", "setting": "[43]", "result": 62.1, "unit": "%"},
      {"measurement": "GI% range over a subset of cell lines", "setting": "[44]; subset of cell lines whose number is stated in the sentence", "result": "67.83 to 30.59", "unit": "%"},
      {"measurement": "inhibition at 10 µM", "setting": "[44]; Homo sapiens, 60 cell, mean over the cell line panel, read-out: Mean growth inhibition % (mean GI%)", "result": 42.5, "unit": "%"},
      {"measurement": "inhibition at 10 µM", "setting": "[45]", "result": 33.2, "unit": "%"},
      {"measurement": "inhibition at 10 µM", "setting": "[46]", "result": "> 100", "unit": "%"}
    ]}
  ]
}
